Laboratory results published in the NIST ThermoML archive (doi:10.1021/je4009987).

Experiment: mn = molality of the nth substance listed, in mol/kg
Settings: 101 kPa, Liquid; for speed of sound: Sing-around technique in a fixed-path interferometer; for mass density: Vibrating tube method

CCOC(=O)CC(C)=O [ethyl 3-oxobutanoate] + O
Settings | mass density, 288.15 K [kg/m3] | mass density, 293.15 K [kg/m3] | mass density, 298.15 K [kg/m3] | mass density, 303.15 K [kg/m3] | mass density, 308.15 K [kg/m3] | speed of sound, 288.15 K [m/s] | speed of sound, 293.15 K [m/s] | speed of sound, 298.15 K [m/s] | speed of sound, 303.15 K [m/s] | speed of sound, 308.15 K [m/s]
m1 = 0.076 | 1000.05 | 999.128 | 997.91 | 996.474 | 994.809 | 1472.6 | 1487.8 | 1501.3 | 1513 | 1523.1
m1 = 0.1625 | 1001.1 | 1000.13 | 998.838 | 997.358 | 995.64 | 1479.2 | 1493.6 | 1506.4 | 1517.4 | 1526.9
m1 = 0.2495 | 1002.14 | 1001.1 | 999.76 | 998.22 | 996.445 | 1485.5 | 1499.2 | 1511.2 | 1521.6 | 1530.4
m1 = 0.3767 | 1003.62 | 1002.48 | 1001.05 | 999.44 | 997.59 | 1494.1 | 1506.7 | 1517.7 | 1527.1 | 1535
m1 = 0.4725 | 1004.7 | 1003.48 | 1002 | 1000.32 | 998.41 | 1500 | 1511.7 | 1522 | 1530.8 | 1538.1
m1 = 0.5324 | 1005.38 | 1004.1 | 1002.58 | 1000.86 | 998.9 | 1503.4 | 1514.7 | 1524.5 | 1532.9 | 1539.8
m1 = 0.6848 | 1007.03 | 1005.6 | 1004 | 1002.18 | 1000.12 | 1511.6 | 1521.7 | 1530.5 | 1537.8 | 1543.7
m1 = 0.7843 | 1008.1 | 1006.56 | 1004.9 | 1003.01 | 1000.9 | 1516.3 | 1525.7 | 1533.7 | 1540.4 | 1545.8
m1 = 0.9019 | 1009.31 | 1007.65 | 1005.93 | 1003.94 | 1001.76 | 1521.4 | 1529.9 | 1537.2 | 1543.1 | 1547.8

COC(=O)CC(C)=O [methyl 3-oxobutanoate] + O
Settings | mass density, 288.15 K [kg/m3] | mass density, 293.15 K [kg/m3] | mass density, 298.15 K [kg/m3] | mass density, 303.15 K [kg/m3] | mass density, 308.15 K [kg/m3] | speed of sound, 288.15 K [m/s] | speed of sound, 293.15 K [m/s] | speed of sound, 298.15 K [m/s] | speed of sound, 303.15 K [m/s] | speed of sound, 308.15 K [m/s]
m1 = 0.0809 | 1000.36 | 999.43 | 998.205 | 996.78 | 995.12 | 1472.5 | 1487.7 | 1501.3 | 1513.1 | 1523.2
m1 = 0.1654 | 1001.65 | 1000.66 | 999.37 | 997.9 | 996.2 | 1477.3 | 1491.9 | 1504.8 | 1516.1 | 1525.7
m1 = 0.285 | 1003.44 | 1002.36 | 1001 | 999.454 | 997.68 | 1484.7 | 1498.3 | 1510.5 | 1521 | 1529.9
m1 = 0.386 | 1004.9 | 1003.75 | 1002.33 | 1000.73 | 998.91 | 1490.1 | 1503.1 | 1514.6 | 1524.4 | 1532.7
m1 = 0.4607 | 1005.98 | 1004.75 | 1003.3 | 1001.65 | 999.79 | 1494.2 | 1506.6 | 1517.6 | 1527 | 1534.9
m1 = 0.5604 | 1007.37 | 1006.06 | 1004.56 | 1002.85 | 1000.94 | 1499.6 | 1511.4 | 1521.7 | 1530.5 | 1537.9
m1 = 0.6367 | 1008.4 | 1007.01 | 1005.53 | 1003.74 | 1001.79 | 1503 | 1514.2 | 1524.1 | 1532.5 | 1539.5
m1 = 0.7871 | 1010.4 | 1008.9 | 1007.35 | 1005.47 | 1003.45 | 1509.8 | 1520.2 | 1529.1 | 1536.7 | 1542.9
m1 = 0.8429 | 1011.13 | 1009.58 | 1008 | 1006.11 | 1004.04 | 1512.2 | 1522.2 | 1530.9 | 1538.1 | 1544
